{"source": "patent US20220054640A1", "about": "“COMPOSITIONS AND METHODS FOR THE DELIVERY OF THERAPEUTIC AGENTS ACROSS THE ROUND WINDOW MEMBRANE” (Decibel Therapeutics, Inc., priority 2018, published 2022)", "key": {"[1]": {"test_system": "guinea pig RWM", "assay": "RWM integrity after in vivo application", "conditions": "21 days post trans-tympanic injection, 0.1% peptide HCl salt", "description": "To assess the capacity for the RWM to recover after application of the […] peptide we record ABR thresholds with and without application of a 50 μL formulation including 0.1% […].HCL to the guinea pig RWM via trans-tympanic injection. […] Post-injection (21 days), the guinea pigs in both the […] exposed and control groups were sacrificed, and the temporal bone was removed as described in Example 5, section (a)."}, "[2]": {"assay": "ABR/hearing testing", "format": "in vivo, guinea pig", "description": "Prior to ABR recording, the tympanic membrane was inspected for otitis media using a surgical microscope. Animals with otitis media were excluded from the analysis. A TDT RZ6 system was used to record the auditory brainstem response (ABR). Animals were anaesthetized with zoletil (20 mg/kg, I.M.) and placed in a soundproof chamber. Three stainless needle recording electrodes were inserted just under the skin and connected to the appropriate input on the PA4LI low impedance headstage: Channel 1: Ipsilateral ear (same side as stimulus delivery); Reference: contralateral ear; Ground: Vertex (base of skull). A computer-controlled TDT RZ6 System was used to generate the auditory pure tone and power amplified before fed to a closed-field speaker to deliver sound stimuli. The same pure tone stimuli were repeated 512 times, the sound pressure levels were increased in a step of 10 dB SPL (5 dB around threshold) from 20 dB SPL to 90 dB SPL after every 512 repeated trials. The lowest sound level which induced a brainstem response was regarded as the threshold. The hearing thresholds were measured at 4, 24, and 32 kHz. ABR recording was performed before surgery or dosing and on the 7th and 14th day after the formulation dosing. The ABR was recorded first from the left ear and then from the right ear."}, "[3]": {"conditions": "guinea pig, not told"}, "[4]": {"assay": "cochlear perilymph exposure upon intratympanic administration", "conditions": "NT-3 formulation with permeation enhancer (peptide 1%)"}, "[5]": {"test_system": "tight and adherens junctions", "assay": "immunohistochemical staining of tight and adherens junctions after the in vitro permeability assay", "format": "cell-based", "conditions": "3.5 hours of incubation at 37° C., NT-3 in vehicle or with 1% peptide", "description": "(§1) To further characterize the effects of peptide (XVI), the in vitro permeability assay was used to evaluate administration of NT-3 in either vehicle or 1% of peptide (XVI), as depicted in FIG. 18. In this experiment, cultures were incubated at 37° C. and 50 μL samples were collected at various time points. After 3.5 hours of incubation, the top and bottom media were collected separately and the insert was fixed for immunohistochemical staining to evaluate tight and adherens junctions."}, "[6]": {"test_system": "round window membrane", "assay": "in vitro permeability assay (apparent permeability, flux)", "format": "in vitro ADME", "conditions": "NT-3 incubated with 1% peptide; for NT-3 apparent permeability (Papp) compared to control: FIG. 22", "description": "To this end, an in vitro permeability assay was designed to test the apparent permeability of NT-3 against that of other compounds, the experimental design of which is shown in FIG. 1. After the initial formation of tight junctions, which was evaluated using transepithelial electrical resistance (TEER), 100 μL artificial perilymph (AP+) with API was added to the insert, and 500 μL AP+ was added to the bath. Cultures were incubated at 37° C. and 20 μL samples were collected at various time points.\nas §1"}, "[7]": {"test_system": "guinea pig RWM", "assay": "tight junction integrity of excised RWM in ex vivo culture", "format": "cell-based", "conditions": "1% peptide TFA salt in DMEM, 1 hour", "description": "The […] peptide is hypothesized to interfere with cellular tight junctions. To assess if this mechanism is relevant to the RWM, we excise the RWM from adult guinea pigs (Elm Hill Labs, Chelmsford, Mass.) and stain for a variety of adherens and tight junction proteins. To extract the guinea pig RWM, the temporal bone was removed from freshly sacrificed guinea pig tissue and placed in PBS. An incision was then made in the roof of the bulla to expose the cochlea, followed by trimming of the temporal bone, bulla, and middle ear bones to expose the RWM. The round window niche was then removed from the cochlea and then cultured in DMEM with and without 1% […].TFA for 1 hour. This tissue was then fixed in a 4% PFA solution for 30 minutes followed by wash with PBS (3 times, 5-minute incubations). […]"}, "[8]": {"conditions": "background statement; cited from earlier work"}, "[9]": {"conditions": "background statement, test not described; cited from earlier work"}, "[10]": {"conditions": "listed as the peptide represented by formula (XVI)"}}, "note": "Like-named read-outs stand apart in the source and are kept apart here. Ends that are not written are not given here. Peptide text beside a SMILES is read from it.", "data": [{"compound": "CC(C)C[C@H](NC(=O)[C@H](C)NC(=O)[C@H](CC(C)C)NC(=O)[C@H](CCCCN)NC(=O)[C@H](CC(C)C)NC(=O)[C@H](C)NC(=O)[C@H](CC(C)C)NC(=O)[C@@H](N)CCCCN)C(=O)N[C@@H](CCCCN)C(=O)N[C@@H](C)C(=O)N[C@@H](CC(C)C)C(=O)N[C@@H](CCCCN)C(=O)N[C@@H](CC(C)C)C(=O)N[C@@H](C)C(=O)N[C@@H](C)C(=O)N[C@@H](CC(C)C)C(=O)N[C@@H](CCCCN)C(=O)N[C@@H](CC(C)C)C(=O)N[C@@H](C)C(=O)O", "note": "(H-KLALKLALKALKLAALKLA-OH; N-terminus and C-terminus assumed)", "values": [{"measurement": "tight junction proteins (actin, ZO-1, alpha-catenin) in RWM", "setting": "[1]", "value": "intact"}, {"measurement": "ABR hearing test, change relative to Day 0", "setting": "[2]; 1 μL of 1% (w/v) peptide HCl salt in Poloxamer 407 (20% w/v), His buffer (pH6), Day 14", "value": "no change relative to Day 0"}, {"measurement": "ABR threshold shift", "setting": "[2]; 50 μL formulation including 0.1% peptide HCl salt, trans-tympanic, 7 and 14 days", "value": "no noticeable threshold shift"}]}, {"compound": "OCc1ccccc1", "note": "[benzyl alcohol, reference compound]", "values": [{"measurement": "effect of permeation enhancer on cochlear NT-3 exposure / NT-3 delivery across the round window membrane", "setting": "[3]", "value": "incapable of substantially improving NT-3 delivery across the round window membrane"}]}, {"compound": "CC1(C)[C@@H](O[C@H]2O[C@H](C(=O)[O-])[C@@H](O)[C@H](O)[C@H]2O[C@@H]2O[C@H](C(=O)[O-])[C@@H](O)[C@H](O)[C@H]2O)CC[C@]2(C)[C@H]3C(=O)C=C4[C@@H]5C[C@@](C)(C(=O)O)CC[C@]5(C)CC[C@@]4(C)[C@]3(C)CC[C@@H]12.[K+].[K+]", "note": "[dipotassium glycyrrhizinate]", "values": [{"measurement": "effect of permeation enhancer on cochlear NT-3 exposure / NT-3 delivery across the round window membrane", "setting": "[4]", "value": "incapable of substantially improving NT-3 delivery across the round window membrane"}]}, {"compound": "CC(=O)NC(CCCCN)C(=O)NC(CC(C)C)C(=O)NC(C)C(=O)NC(CC(C)C)C(=O)NC(CCCCN)C(=O)NC(CC(C)C)C(=O)NC(C)C(=O)NC(CC(C)C)C(=O)NC(CCCCN)C(=O)NC(C)C(=O)NC(CC(C)C)C(=O)NC(CCCCN)C(=O)NC(CC(C)C)C(=O)NC(C)C(=O)NC(C)C(=O)NC(CC(C)C)C(=O)NC(CCCCN)C(=O)NC(CC(C)C)C(=O)NC(C)C(N)=O", "note": "(centres unmarked) [peptide (XVI)] (Ac-KLALKLALKALKLAALKLA-NH2; configuration not given here)", "values": [{"measurement": "cell junction appearance (immunohistochemical staining)", "setting": "[5]", "value": "gaps could be observed between cells"}, {"measurement": "cell junction appearance (immunohistochemical staining)", "setting": "[5]; [10]", "value": "gaps were observed between cells"}, {"measurement": "NT-3 flux compared to control", "setting": "[6]; FIG. 21", "value": "greater flux"}, {"measurement": "NT-3 apparent permeability (Papp) compared to control", "setting": "[6]", "value": "greater"}, {"measurement": "NT-3 apparent permeability (Papp) compared to control", "setting": "[6]; [10]", "value": "increased NT-3 permeability"}]}, {"compound": "KLALKLALKALKLAALKLA.TFA (also: TFA salt)", "values": [{"measurement": "junction protein structure in RWM", "setting": "[7]", "value": "disrupts occludin, ZO-1, and alpha-catenin, but not actin (as imaged via phalloidin), or beta-catenin structure"}]}, {"compound": "neurotrophin-3 [NT-3]", "values": [{"measurement": "pI", "setting": "[8]", "value": 9.5}, {"measurement": "cell junction appearance (immunohistochemical staining)", "setting": "[5]", "value": "adherens junctions appeared normal"}, {"measurement": "EC50", "setting": "[9]", "value": "less than 20 ng/ml"}]}]}
